Assay results from ChEMBL document CHEMBL3991601, “The target landscape of clinical kinase drugs” (Science, 2017).
Active and inactive are the calls of the source.

How the values were obtained:
[1] = biological target: T1, Glycogen phosphorylase, brain form (Homo sapiens, UniProt P11216)
T1 sequence (P11216 whole entry): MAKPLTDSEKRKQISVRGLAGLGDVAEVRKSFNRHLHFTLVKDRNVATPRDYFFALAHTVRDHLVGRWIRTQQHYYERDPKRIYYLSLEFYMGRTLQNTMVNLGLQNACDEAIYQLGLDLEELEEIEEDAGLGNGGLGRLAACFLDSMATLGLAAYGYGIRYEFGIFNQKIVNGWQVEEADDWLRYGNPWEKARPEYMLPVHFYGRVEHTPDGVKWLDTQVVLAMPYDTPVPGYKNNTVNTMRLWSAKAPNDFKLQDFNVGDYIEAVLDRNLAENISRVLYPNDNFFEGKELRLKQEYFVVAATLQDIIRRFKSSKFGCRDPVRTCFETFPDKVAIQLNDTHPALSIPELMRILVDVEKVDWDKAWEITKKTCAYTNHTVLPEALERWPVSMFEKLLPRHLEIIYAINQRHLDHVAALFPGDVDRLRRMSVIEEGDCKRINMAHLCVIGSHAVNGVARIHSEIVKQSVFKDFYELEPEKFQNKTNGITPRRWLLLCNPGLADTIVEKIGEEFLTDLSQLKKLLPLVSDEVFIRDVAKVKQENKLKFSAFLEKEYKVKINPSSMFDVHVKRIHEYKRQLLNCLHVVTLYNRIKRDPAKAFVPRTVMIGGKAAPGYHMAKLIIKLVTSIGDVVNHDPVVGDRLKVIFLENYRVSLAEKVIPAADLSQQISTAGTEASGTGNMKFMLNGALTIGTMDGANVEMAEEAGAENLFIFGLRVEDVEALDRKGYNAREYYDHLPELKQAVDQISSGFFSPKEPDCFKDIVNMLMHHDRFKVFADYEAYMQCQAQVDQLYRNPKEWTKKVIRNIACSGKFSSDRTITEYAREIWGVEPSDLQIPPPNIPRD

[2] = biological target: T2, Ras-related protein Rab-27A (Homo sapiens, UniProt P51159)
T2 sequence (P51159 whole entry): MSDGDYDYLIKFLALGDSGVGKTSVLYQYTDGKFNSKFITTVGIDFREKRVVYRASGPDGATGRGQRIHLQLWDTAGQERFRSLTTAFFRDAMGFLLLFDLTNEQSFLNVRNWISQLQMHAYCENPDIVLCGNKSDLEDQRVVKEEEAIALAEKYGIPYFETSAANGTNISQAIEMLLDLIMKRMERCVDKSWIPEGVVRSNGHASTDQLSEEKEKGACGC

[3] = biological target: Serine/threonine-protein kinase MRCK alpha (Homo sapiens, UniProt Q5VT25)
Chain of Serine/threonine-protein kinase MRCK alpha (Q5VT25 whole entry): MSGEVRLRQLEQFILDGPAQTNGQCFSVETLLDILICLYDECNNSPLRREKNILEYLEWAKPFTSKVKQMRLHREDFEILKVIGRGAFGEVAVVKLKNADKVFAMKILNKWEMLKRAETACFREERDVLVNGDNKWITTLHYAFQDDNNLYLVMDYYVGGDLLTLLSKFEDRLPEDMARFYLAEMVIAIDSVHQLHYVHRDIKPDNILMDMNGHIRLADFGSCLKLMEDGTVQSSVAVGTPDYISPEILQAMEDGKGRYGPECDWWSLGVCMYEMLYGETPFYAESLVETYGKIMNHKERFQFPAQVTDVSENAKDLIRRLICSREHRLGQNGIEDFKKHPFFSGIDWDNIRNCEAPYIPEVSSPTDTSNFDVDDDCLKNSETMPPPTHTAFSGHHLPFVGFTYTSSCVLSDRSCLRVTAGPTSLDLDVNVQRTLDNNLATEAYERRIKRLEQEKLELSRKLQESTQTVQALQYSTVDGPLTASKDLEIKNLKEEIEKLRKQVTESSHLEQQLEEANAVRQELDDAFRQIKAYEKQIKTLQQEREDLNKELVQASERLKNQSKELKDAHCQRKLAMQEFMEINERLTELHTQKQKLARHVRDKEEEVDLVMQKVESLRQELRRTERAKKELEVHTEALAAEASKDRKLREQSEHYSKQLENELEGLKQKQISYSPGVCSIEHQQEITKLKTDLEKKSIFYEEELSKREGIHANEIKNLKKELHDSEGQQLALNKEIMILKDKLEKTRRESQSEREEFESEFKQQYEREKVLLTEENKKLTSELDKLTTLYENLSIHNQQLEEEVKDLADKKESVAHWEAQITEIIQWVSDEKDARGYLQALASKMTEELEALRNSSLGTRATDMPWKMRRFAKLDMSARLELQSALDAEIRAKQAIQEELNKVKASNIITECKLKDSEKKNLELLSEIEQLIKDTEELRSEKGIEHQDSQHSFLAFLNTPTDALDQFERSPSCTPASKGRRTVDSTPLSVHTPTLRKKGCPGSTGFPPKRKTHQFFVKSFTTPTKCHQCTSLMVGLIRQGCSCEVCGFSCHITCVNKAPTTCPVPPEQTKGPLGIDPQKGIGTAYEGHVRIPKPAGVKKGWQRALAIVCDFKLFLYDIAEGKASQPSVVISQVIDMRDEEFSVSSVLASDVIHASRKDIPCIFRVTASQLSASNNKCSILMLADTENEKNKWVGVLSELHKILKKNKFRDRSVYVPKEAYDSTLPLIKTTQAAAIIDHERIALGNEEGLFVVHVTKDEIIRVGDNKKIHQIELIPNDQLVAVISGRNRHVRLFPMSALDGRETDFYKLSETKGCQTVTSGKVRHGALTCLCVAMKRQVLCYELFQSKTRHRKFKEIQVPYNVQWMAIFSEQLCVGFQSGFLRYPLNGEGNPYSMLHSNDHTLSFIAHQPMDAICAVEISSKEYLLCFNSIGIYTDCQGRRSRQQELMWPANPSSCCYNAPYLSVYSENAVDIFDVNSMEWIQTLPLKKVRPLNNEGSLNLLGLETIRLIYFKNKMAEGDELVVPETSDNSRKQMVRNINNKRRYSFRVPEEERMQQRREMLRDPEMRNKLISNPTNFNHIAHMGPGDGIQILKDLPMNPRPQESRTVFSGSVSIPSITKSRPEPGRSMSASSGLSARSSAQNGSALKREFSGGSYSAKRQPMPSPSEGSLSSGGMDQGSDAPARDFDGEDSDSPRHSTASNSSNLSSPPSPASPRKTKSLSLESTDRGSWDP

[4] = biological target: Cyclin-dependent kinase 2 (Homo sapiens, UniProt P24941)
[5] = biological target: Protein kinase C delta type (Homo sapiens, UniProt Q05655)
Chain of Protein kinase C delta type (Q05655 whole entry): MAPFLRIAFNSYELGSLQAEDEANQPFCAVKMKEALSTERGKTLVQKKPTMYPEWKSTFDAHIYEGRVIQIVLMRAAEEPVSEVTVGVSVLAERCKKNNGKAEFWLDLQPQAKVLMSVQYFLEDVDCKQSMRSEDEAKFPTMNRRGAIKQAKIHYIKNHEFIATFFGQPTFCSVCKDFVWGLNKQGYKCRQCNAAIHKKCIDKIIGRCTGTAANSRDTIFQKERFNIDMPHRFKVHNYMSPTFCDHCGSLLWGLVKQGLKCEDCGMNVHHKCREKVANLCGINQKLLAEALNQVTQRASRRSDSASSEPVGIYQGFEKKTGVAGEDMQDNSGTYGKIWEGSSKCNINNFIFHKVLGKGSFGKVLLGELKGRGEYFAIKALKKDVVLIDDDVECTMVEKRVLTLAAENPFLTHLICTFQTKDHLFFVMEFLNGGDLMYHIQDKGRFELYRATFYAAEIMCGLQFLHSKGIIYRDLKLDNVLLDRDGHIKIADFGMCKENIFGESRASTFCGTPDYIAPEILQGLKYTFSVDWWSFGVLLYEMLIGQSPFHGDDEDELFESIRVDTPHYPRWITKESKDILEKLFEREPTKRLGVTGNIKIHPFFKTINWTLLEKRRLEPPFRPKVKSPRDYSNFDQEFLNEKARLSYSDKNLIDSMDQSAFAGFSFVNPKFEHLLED

[6] = biological target: Mitogen-activated protein kinase 3 (Homo sapiens, UniProt P27361)
[7] = biological target: Insulin-like growth factor 1 receptor (Homo sapiens, UniProt P08069)
Chain of Insulin-like growth factor 1 receptor (P08069 31-736 limits assumed): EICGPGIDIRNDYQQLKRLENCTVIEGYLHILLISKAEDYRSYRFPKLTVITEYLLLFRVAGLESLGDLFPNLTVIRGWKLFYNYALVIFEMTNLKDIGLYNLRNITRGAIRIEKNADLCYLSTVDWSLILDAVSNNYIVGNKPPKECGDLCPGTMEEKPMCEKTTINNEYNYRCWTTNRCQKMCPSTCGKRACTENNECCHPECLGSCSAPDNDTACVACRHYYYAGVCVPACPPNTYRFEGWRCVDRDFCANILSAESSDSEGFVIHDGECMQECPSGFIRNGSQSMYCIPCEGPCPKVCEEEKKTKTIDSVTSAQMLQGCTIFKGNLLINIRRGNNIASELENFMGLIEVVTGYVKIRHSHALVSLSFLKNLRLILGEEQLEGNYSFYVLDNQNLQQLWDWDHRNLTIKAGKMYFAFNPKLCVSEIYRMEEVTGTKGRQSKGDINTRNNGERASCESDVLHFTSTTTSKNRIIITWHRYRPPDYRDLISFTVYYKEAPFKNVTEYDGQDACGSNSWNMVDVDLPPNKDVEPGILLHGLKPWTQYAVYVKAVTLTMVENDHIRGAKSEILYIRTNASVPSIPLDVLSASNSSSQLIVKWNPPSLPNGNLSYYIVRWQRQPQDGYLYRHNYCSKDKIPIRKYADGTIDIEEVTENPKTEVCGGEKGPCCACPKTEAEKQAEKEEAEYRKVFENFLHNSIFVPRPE
Chain of Insulin-like growth factor 1 receptor (P08069 741-1367 limits assumed): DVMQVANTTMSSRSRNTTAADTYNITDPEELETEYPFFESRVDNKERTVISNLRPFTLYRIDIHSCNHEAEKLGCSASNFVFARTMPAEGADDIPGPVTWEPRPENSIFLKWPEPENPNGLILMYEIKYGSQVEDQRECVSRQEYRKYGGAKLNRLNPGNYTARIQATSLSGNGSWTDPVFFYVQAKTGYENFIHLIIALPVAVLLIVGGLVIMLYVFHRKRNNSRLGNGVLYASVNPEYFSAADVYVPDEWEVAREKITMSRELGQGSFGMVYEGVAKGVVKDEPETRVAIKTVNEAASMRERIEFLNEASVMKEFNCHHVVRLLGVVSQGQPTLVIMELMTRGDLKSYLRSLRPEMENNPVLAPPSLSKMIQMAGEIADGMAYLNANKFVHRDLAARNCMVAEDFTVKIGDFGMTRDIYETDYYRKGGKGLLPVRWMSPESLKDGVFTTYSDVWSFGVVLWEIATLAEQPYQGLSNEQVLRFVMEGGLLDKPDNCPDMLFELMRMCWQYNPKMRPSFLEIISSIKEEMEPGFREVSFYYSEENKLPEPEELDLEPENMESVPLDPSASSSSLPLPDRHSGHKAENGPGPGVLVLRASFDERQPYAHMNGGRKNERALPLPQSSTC

[8] = biological target: Tyrosine-protein kinase Lck (Homo sapiens, UniProt P06239)
Chain of Tyrosine-protein kinase Lck (P06239 whole entry): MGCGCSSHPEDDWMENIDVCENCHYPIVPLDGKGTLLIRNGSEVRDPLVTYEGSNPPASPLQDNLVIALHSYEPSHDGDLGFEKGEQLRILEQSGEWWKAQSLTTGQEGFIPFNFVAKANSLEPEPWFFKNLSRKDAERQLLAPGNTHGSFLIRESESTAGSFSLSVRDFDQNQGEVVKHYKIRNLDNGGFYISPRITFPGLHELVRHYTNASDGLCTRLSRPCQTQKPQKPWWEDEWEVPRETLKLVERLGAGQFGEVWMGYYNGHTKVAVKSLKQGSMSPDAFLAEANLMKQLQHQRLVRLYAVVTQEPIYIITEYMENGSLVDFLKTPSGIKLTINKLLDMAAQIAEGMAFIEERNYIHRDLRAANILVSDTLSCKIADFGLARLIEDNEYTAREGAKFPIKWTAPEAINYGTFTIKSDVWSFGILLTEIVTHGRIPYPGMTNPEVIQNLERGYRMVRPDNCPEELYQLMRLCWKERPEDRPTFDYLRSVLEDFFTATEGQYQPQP

[9] = biological target: T3, Serine/threonine-protein kinase ICK (Homo sapiens, UniProt Q9UPZ9)
T3 sequence (Q9UPZ9 whole entry): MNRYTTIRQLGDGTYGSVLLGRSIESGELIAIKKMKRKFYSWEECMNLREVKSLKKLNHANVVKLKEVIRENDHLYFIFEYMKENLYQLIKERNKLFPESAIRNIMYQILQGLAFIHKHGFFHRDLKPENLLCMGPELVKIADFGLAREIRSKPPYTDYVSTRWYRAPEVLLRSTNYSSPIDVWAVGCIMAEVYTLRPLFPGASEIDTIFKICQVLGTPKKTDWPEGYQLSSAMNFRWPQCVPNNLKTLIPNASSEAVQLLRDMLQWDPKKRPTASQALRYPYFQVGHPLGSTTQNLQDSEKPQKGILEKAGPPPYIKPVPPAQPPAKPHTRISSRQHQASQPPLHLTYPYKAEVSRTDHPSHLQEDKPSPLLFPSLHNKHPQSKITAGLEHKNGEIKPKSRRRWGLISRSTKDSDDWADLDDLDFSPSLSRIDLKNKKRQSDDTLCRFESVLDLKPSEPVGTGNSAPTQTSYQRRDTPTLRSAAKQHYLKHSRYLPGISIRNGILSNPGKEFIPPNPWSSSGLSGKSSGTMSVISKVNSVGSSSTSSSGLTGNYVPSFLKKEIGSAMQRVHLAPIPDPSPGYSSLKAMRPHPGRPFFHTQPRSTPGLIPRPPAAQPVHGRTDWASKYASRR

[10] = biological target: Membrane-associated progesterone receptor component 1 (Homo sapiens, UniProt O00264)
Chain of Membrane-associated progesterone receptor component 1 (O00264 whole entry): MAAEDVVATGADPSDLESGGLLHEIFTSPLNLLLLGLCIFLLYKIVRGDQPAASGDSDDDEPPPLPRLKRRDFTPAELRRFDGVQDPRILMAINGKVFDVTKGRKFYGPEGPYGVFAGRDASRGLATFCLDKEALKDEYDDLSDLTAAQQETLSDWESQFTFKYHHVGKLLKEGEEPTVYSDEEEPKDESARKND

[11] = biological target: MAP kinase-activated protein kinase 2 (Homo sapiens, UniProt P49137)
Chain of MAP kinase-activated protein kinase 2 (P49137 whole entry): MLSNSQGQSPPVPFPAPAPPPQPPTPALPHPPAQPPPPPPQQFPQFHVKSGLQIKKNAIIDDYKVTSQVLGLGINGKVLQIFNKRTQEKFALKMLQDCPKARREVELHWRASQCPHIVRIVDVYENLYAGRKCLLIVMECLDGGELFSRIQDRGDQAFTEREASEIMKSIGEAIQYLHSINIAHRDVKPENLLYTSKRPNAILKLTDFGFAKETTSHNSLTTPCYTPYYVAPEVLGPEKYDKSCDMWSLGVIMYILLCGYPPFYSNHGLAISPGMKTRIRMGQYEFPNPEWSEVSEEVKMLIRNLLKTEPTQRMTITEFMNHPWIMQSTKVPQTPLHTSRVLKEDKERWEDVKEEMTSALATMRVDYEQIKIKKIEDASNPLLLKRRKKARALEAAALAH

[12] = biological target: Mitotic checkpoint serine/threonine-protein kinase BUB1 (Homo sapiens, UniProt O43683)
Also: in the data inactive means no Kd found up to 30 µM.

SMILES | Kd [1] | Kd [2] | Kd [3] | Kd [4] | Kd [5] | Kd [6] | Kd [7] | Kd [8] | Kd [9] | Kd [10] | Kd [11] | Kd [12]
Cc1cc(C(=O)NOCCO)c(Nc2ccc(I)cc2F)n(C)c1=O [AZD-8330] | > 30 µM (inactive) | > 30 µM (inactive) | > 30 µM (inactive) | > 30 µM (inactive) | > 30 µM (inactive) | > 30 µM (inactive) | > 30 µM (inactive) | > 30 µM (inactive) | > 30 µM (inactive) | > 30 µM (inactive) | > 30 µM (inactive) | –
Cc1nc(NC(=O)N2CCC[C@H]2C(N)=O)sc1-c1ccnc(C(C)(C)C(F)(F)F)c1 [ALPELISIB] | > 30 µM (inactive) | – | > 30 µM (inactive) | > 30 µM (inactive) | > 30 µM (inactive) | > 30 µM (inactive) | > 30 µM (inactive) | > 30 µM (inactive) | > 30 µM (inactive) | > 30 µM (inactive) | > 30 µM (inactive) | –
Cn1ncc(Cl)c1-c1cc(C(=O)N[C@H](CN)Cc2ccc(F)c(F)c2)oc1Cl [UPROSERTIB] | > 30 µM (inactive) | > 30 µM (inactive) | > 30 µM (inactive) | > 30 µM (inactive) | > 30 µM (inactive) | > 30 µM (inactive) | > 30 µM (inactive) | > 30 µM (inactive) | – | > 30 µM (inactive) | > 30 µM (inactive) | > 30 µM (inactive)
CCCCCCCCCCCCCCCCCCOP(=O)([O-])OC1CC[N+](C)(C)CC1 [PERIFOSINE] | > 30 µM (inactive) | > 30 µM (inactive) | > 30 µM (inactive) | > 30 µM (inactive) | > 30 µM (inactive) | > 30 µM (inactive) | > 30 µM (inactive) | > 30 µM (inactive) | > 30 µM (inactive) | > 30 µM (inactive) | > 30 µM (inactive) | –
COc1ncc(-c2ccc3nccc(-c4ccnnc4)c3c2)cc1NS(=O)(=O)c1ccc(F)cc1F [OMIPALISIB] | > 30 µM (inactive) | > 30 µM (inactive) | > 30 µM (inactive) | > 30 µM (inactive) | > 30 µM (inactive) | > 30 µM (inactive) | > 30 µM (inactive) | > 30 µM (inactive) | > 30 µM (inactive) | > 30 µM (inactive) | > 30 µM (inactive) | –
C[C@H]1CNCCCN1S(=O)(=O)c1cccc2cncc(F)c12 | > 30 µM (inactive) | > 30 µM (inactive) | – | > 30 µM (inactive) | 2.47 µM (active) | > 30 µM (inactive) | > 30 µM (inactive) | > 30 µM (inactive) | > 30 µM (inactive) | > 30 µM (inactive) | > 30 µM (inactive) | > 30 µM (inactive)
C[C@@H](Oc1cc(C(=O)Nc2ccc(C(=O)N3CCN(C)CC3)cc2)nnc1N)c1c(Cl)ccc(F)c1Cl | > 30 µM (inactive) | > 30 µM (inactive) | > 30 µM (inactive) | > 30 µM (inactive) | > 30 µM (inactive) | > 30 µM (inactive) | > 30 µM (inactive) | > 30 µM (inactive) | – | > 30 µM (inactive) | > 30 µM (inactive) | > 30 µM (inactive)
CO[C@H]1C[C@@H]2CC[C@@H](C)[C@@](O)(O2)C(=O)C(=O)N2CCCC[C@H]2C(=O)O[C@H]([C@H](C)C[C@@H]2CC[C@@H](OC(=O)C(C)(CO)CO)[C@H](OC)C2)CC(=O)[C@H](C)/C=C(\C)[C@@H](O)[C@@H](OC)C(=O)[C@H](C)C[C@H](C)/C=C/C=C/C=C/1C [TEMSIROLIMUS] | – | > 30 µM (inactive) | > 30 µM (inactive) | > 30 µM (inactive) | > 30 µM (inactive) | > 30 µM (inactive) | > 30 µM (inactive) | > 30 µM (inactive) | > 30 µM (inactive) | > 30 µM (inactive) | > 30 µM (inactive) | > 30 µM (inactive)
NC(=O)Nc1cc(-c2cccc(F)c2)sc1C(=O)N[C@H]1CCCNC1 [AZD-7762] | > 30 µM (inactive) | > 30 µM (inactive) | > 30 µM (inactive) | > 30 µM (inactive) | 0.928 µM | > 30 µM (inactive) | > 30 µM (inactive) | 1.29 µM (active) | > 30 µM (inactive) | > 30 µM (inactive) | > 30 µM (inactive) | –
